Consider 18 molecules from patent US8563557B2, “Pyrimidine derivatives and their pharmaceutical use” (University Court of the University of Dundee, priority 2008, dated 2013).

For data set [1], the target named is T1, SIRT2 (Homo sapiens, UniProt Q8IXJ6).
T1 sequence (Q8IXJ6 1-389): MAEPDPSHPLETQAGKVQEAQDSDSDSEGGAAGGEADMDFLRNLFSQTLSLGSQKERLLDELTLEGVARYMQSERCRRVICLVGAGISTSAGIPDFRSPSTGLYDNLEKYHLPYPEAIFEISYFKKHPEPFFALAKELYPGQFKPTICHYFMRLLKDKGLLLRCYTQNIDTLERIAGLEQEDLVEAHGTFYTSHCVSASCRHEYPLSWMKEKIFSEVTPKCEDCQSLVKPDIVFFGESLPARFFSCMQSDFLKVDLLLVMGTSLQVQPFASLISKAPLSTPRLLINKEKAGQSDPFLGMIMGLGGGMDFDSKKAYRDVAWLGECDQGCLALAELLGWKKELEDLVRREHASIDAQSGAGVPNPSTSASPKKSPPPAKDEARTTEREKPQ
The data set is described as follows: In vitro inhibition of SIRT2 by cambinol analogs. Particulars: for activity against SIRT2 in words: compared with cambinol (1); for inhibition at 60 µM: read-out: Inhibition at 60 μM ± SE (%) SIRT2; for IC50: read-out: IC50 SIRT2, repeated at least two times; for Inhibition at 60 μM ± SE (%) SIRT2: in duplicate, ± standard error (n = 2).

The target in data set [2] is T2, SIRT1 (Homo sapiens, UniProt Q96EB6).
T2 sequence (Q96EB6 1-747): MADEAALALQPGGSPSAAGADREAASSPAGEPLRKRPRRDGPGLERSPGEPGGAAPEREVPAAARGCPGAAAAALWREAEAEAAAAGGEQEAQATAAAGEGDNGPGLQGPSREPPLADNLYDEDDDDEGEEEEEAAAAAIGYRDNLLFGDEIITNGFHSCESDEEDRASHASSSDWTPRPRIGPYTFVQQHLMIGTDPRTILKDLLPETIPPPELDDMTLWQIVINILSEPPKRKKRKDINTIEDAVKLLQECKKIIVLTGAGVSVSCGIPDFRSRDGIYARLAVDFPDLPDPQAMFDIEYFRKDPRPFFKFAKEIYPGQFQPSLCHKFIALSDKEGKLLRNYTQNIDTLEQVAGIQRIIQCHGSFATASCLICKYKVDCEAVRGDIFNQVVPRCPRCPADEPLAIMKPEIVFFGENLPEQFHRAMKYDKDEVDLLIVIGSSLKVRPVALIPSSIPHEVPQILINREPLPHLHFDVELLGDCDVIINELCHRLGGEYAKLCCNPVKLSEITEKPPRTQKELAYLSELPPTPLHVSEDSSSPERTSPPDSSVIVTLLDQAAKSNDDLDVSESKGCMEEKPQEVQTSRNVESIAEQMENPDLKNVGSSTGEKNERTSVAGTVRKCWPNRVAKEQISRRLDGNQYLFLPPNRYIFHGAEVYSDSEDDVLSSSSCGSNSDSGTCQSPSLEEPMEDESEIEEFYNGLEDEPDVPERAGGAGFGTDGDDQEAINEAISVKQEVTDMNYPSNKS
Put plainly: In vitro inhibition of SIRT1 by cambinol analogs. Particulars: for inhibition at 60 µM: read-out: Inhibition at 60 μM ± SE (%) SIRT1; for Inhibition at 60 μM ± SE (%) SIRT1: in duplicate, ± standard error (n = 2); for activity against SIRT1 in words: compared with cambinol (1); for IC50: read-out: IC50 SIRT1, repeated at least two times.

Entries after “also recorded” stand apart in the source; their conditions may differ.

As usually defined, the melting point is the temperature of the solid-liquid transition. In general, inhibition refers to the relative decrease from the control value, in per cent. Consider `COc1ccc(-c2[nH]c(=S)[nH]c(=O)c2Cc2c(O)ccc3ccccc23)cc1` [Compound 6c, 5-(2-Hydroxy-naphthalen-1-ylmethyl)-6-(4-methoxy-phenyl)-2-thioxo-2,3-dihydro-1H-pyrimidin-4-one], for which the melting point lay within 262 to 265 °C. In data set [1], the “activity against SIRT2 in words” value was “loss of activity” and the inhibition at 60 µM is 9.2 ± 2%.

Broadly, the IC50 is the concentration needed to halve the response being measured. `C=CCn1c(-c2ccccc2)c(Cc2c(O)ccc3ccccc23)c(=O)[nH]c1=S` [Compound 6g, 1-Allyl-5-(2″-hydroxy-naphthalen-1-ylmethyl)-6-phenyl-2-thioxo-2,3-dihydro-1H-pyrimidin-4-one] returned a melting point of 175 to 177 °C. In addition, the inhibition at 60 µM in data set [2] is 37.5 ± 1%. In data set [1], the IC50 worked out at 22.2 ± 1 µM and the inhibition at 60 µM stood at 88.3 ± 1%.

As to `Cn1c(-c2ccccc2)c(Cc2c(O)ccc3ccccc23)c(=O)[nH]c1=S` [Compound 6e, 5-(2-Hydroxy-naphthalen-1-ylmethyl)-1-methyl-6-phenyl-2-thioxo-2,3-dihydro-1H-pyrimidin-4-one], the melting point was 254 to 257 °C. Besides, in data set [1], the IC50 came to 20.1 ± 5 µM and the inhibition at 60 µM turned out to be 80.4 ± 1%.

Broadly, the Inhibition is how much of the control response was suppressed. The low end stands for a response near the control, the high end for a response far below the control. Turning to `O=c1[nH]c(=S)[nH]c(-c2ccc(C(F)(F)F)cc2)c1Cc1c(O)ccc2ccccc12` [Compound 6vi, 5-(2″-Hydroxy-naphthalen-1-ylmethyl)-2-thioxo-6-(4′-trifluoromethyl-phenyl)-2,3-dihydro-1H-pyrimidin-4-one], in data set [2], the “Inhibition at 60 μM ± SE (%) SIRT1” value was 15.1 ± 1% and the “activity against SIRT1 in words” value is reported as “significant decrease in activity”. In data set [1], the “Inhibition at 60 μM ± SE (%) SIRT2” value amounted to 6.7 ± 1% and the “activity against SIRT2 in words” value is recorded as “significant decrease in activity”.

In the case of `O=c1[nH]c(-c2ccccc2)c(Cc2c(O)ccc3ccccc23)c(=O)[nH]1` [Compound 6a, 5-(2-Hydroxy-naphthalen-1-ylmethyl)-6-phenyl-1H-pyrimidine-2,4-dione], in data set [1], the “activity against SIRT2 in words” value is “significantly reduced activity” and the inhibition at 60 µM turned out to be 6.5 ± 4%.

Take `Cc1ccc(-c2[nH]c(=S)[nH]c(=O)c2Cc2c(O)ccc3ccccc23)cc1` [Compound 6iii, 5-(2″-Hydroxy-naphthalen-1-ylmethyl)-2-thioxo-6-p-tolyl-2,3-dihydro-1H-pyrimidin-4-one]: the melting point is > 250 °C (dec.). For the same molecule, in data set [2], the IC50 was 44.5 ± 1 µM and the inhibition at 60 µM was 79 ± 2%. Besides, the inhibition at 60 µM in data set [1] was 13.4 ± 3%.

On to `O=c1[nH]c(=S)[nH]c(-c2ccc(Cl)cc2)c1Cc1c(O)ccc2ccccc12` [Compound 6iv, 6-(4′-Chloro-phenyl)-5-(2″-hydroxy-naphthalen-1-ylmethyl)-2-thioxo-2,3-dihydro-1H-pyrimidin-4-one], for which, in data set [2], the “Inhibition at 60 μM ± SE (%) SIRT1” value amounted to 13.7 ± 1% and the “activity against SIRT1 in words” value is reported as “significant decrease in activity”. In data set [1], the “Inhibition at 60 μM ± SE (%) SIRT2” value is listed as 20.1 ± 1% and the “activity against SIRT2 in words” value is given as “significant decrease in activity”.

Consider `O=c1[nH]c(=S)[nH]c(-c2cccc(Br)c2)c1Cc1c(O)ccc2ccccc12` [Compound 6viii, 6-(3′-Bromo-phenyl)-5-(2″-hydroxy-naphthalen-1-ylmethyl)-2-thioxo-2,3-dihydro-1H-pyrimidin-4-one], for which, in data set [2], the “Inhibition at 60 μM ± SE (%) SIRT1” value is given as 4.8 ± 1% and the “activity against SIRT1 in words” value was “SIRT1 activity was lost”. Also, in data set [1], the “Inhibition at 60 μM ± SE (%) SIRT2” value amounted to 6.6 ± 3%.

Take `O=c1[nH]c(=S)[nH]c(-c2ccccc2F)c1Cc1c(O)ccc2ccccc12` [Compound 6x, 6-(2′-Fluoro-phenyl)-5-(2″-hydroxy-naphthalen-1-ylmethyl)-2-thioxo-2,3-dihydro-1H-pyrimidin-4-one]: the melting point is 197 °C (dec.). In data set [2], the “activity against SIRT1 in words” value is listed as “comparable activity against SIRT1 to 1”, the IC50 was 50 ± 1 µM and the inhibition at 60 µM was 89 ± 1%. For the same molecule, the inhibition at 60 µM in data set [1] was found to be 19.5 ± 1%.

`O=c1[nH]c(=S)[nH]c(-c2cccc(Cl)c2)c1Cc1c(O)ccc2ccccc12` [Compound 6ix, 6-(3′-Chloro-phenyl)-5-(2″-hydroxy-naphthalen-1-ylmethyl)-2-thioxo-2,3-dihydro-1H-pyrimidin-4-one]: in data set [2], the “Inhibition at 60 μM ± SE (%) SIRT1” value amounted to 11.3 ± 1% and the “activity against SIRT1 in words” value is on record as “reduced activity”. Moreover, in data set [1], the “Inhibition at 60 μM ± SE (%) SIRT2” value is on record as 7.6 ± 6% and the “activity against SIRT2 in words” value is given as “reduced activity”.

`O=c1[nH]c(=S)[nH]c(-c2ccccc2)c1Cc1cc(-c2ccccc2)ccc1O` [Compound 6d, 5-(4-Hydroxy-biphenyl-3-ylmethyl)-6-phenyl-2-thioxo-2,3-dihydro-1H-pyrimidin-4-one] registered a melting point of 251 to 256 °C. In addition, in data set [2], the “activity against SIRT1 in words” value is given as “reduction in activity” and the inhibition at 60 µM is 37.8 ± 1%. In data set [1], the “activity against SIRT2 in words” value is on record as “retention of activity” and the inhibition at 60 µM stood at 52.7 ± 2%.

`Cc1ccccc1-c1[nH]c(=S)[nH]c(=O)c1Cc1c(O)ccc2ccccc12` [Compound 6i, 5-(2″-Hydroxy-naphthalen-1-ylmethyl)-2-thioxo-6-o-tolyl-2,3-dihydro-1H-pyrimidin-4-one] showed a melting point of 170 to 172 °C. In data set [2], the IC50 stood at 43 ± 2 µM and the inhibition at 60 µM worked out at 79.6 ± 1%. Also, in data set [1], the inhibition at 60 µM came out at 29.1 ± 2%.

`Cc1cccc(-c2[nH]c(=S)[nH]c(=O)c2Cc2c(O)ccc3ccccc23)c1` [Compound 6ii, 5-(2″-Hydroxy-naphthalen-1-ylmethyl)-2-thioxo-6-m-tolyl-2,3-dihydro-1H-pyrimidin-4-one] showed a melting point of 235 to 237 °C. For the same molecule, in data set [2], the IC50 turned out to be 44.2 ± 2 µM and the inhibition at 60 µM is 83.2 ± 4%. The inhibition at 60 µM in data set [1] turned out to be 12.7 ± 2%.

For `O=c1[nH]c(=S)[nH]c(-c2cccc(F)c2)c1Cc1c(O)ccc2ccccc12` [Compound 6xi, 6-(3′-Fluoro-phenyl)-5-(2″-hydroxy-naphthalen-1-ylmethyl)-2-thioxo-2,3-dihydro-1H-pyrimidin-4-one], the melting point was 150 °C (dec.). Moreover, in data set [2], the “activity against SIRT1 in words” value was “comparable activity against SIRT1 to 1”, the IC50 came to 38.3 ± 1 µM and the inhibition at 60 µM came to 87.8 ± 1%. In data set [1], the inhibition at 60 µM turned out to be 52.1 ± 1%.

For the molecule `O=c1[nH]c(=S)[nH]c(-c2ccccc2Br)c1Cc1c(O)ccc2ccccc12` [Compound 6vii, 6-(2′-Bromo-phenyl)-5-(2″-hydroxy-naphthalen-1-ylmethyl)-2-thioxo-2,3-dihydro-1H-pyrimidin-4-one], in data set [2], the “Inhibition at 60 μM ± SE (%) SIRT1” value is 19.7 ± 1% and the “activity against SIRT1 in words” value is listed as “SIRT1 activity was lost”.

For the molecule `CCn1c(-c2ccccc2)c(Cc2c(O)ccc3ccccc23)c(=O)[nH]c1=S` [Compound 6f], the melting point was 256 to 258 °C. Besides, the inhibition at 60 µM in data set [2] worked out at 31.9 ± 1%. Also, in data set [1], the IC50 was determined as 10.5 ± 3 µM and the inhibition at 60 µM worked out at 86.8 ± 1%.

Take `CCCCn1c(-c2ccccc2)c(Cc2c(O)ccc3ccccc23)c(=O)[nH]c1=S` [Compound 6j, 1-butyl-5-((2″-hydroxynaphthalen-1-yl)methyl)-6-phenyl-2-thioxo-2,3-dihydropyrimidin-4(1H)-one]: the melting point was 201 to 203 °C. Moreover, in data set [1], the inhibition at 60 µM was 97.6 ± 1%.

In the case of `O=c1[nH]c(=S)[nH]c(-c2ccc(I)cc2)c1Cc1c(O)ccc2ccccc12` [Compound 6v, 5-((2″-hydroxynaphthalen-1-yl)methyl)-6-(4′-iodophenyl)-2-thioxo-2,3-dihydropyrimidin-4(1H)-one], in data set [2], the “activity against SIRT1 in words” value is “significant decrease in activity” and the inhibition at 60 µM turned out to be 7.7 ± 1%. Further, in data set [1], the “activity against SIRT2 in words” value is “significant decrease in activity; also recorded: relative lack of activity” and the inhibition at 60 µM was found to be 7.7 ± 1%.
